# From paper PMC2376334, “Penetration of capecitabine and its metabolites into malignant and healthy tissues of patients with advanced breast cancer” (British Journal of Cancer, 2003)
# How the values were obtained:
# [1] = Microdialysis pharmacokinetics in the interstitium of a cutaneous metastasis (tumour)
# Excerpt: (§1) Patients were in a supine position throughout the study period. Commercially available microdialysis probes (CMA 10®, CMA, Stockholm, Sweden) were inserted into a suitable cutaneous metastasis. A second microdialysis probe was inserted horizontally into the subcutaneous connective tissue of one thigh. The surface of the disinfected skin was punctured according to a previously described procedure ([Müller et al, 1995]). The position of the probes in the metastasis was established by ultrasound scanning. Subsequently, the microdialysis system was connected and perfused with Ringer's solution at a flow rate of 1.5 μl min^−1 by a microinfusion-pump (Precidor®; Infors-AG, Basel, Switzerland). After a 30 min baseline sampling period, probe calibration for capecitabine and FU was performed for a period of 30 min according to a retrodialysis procedure ([Stahle et al, 1991]). After a wash-out period of 30 min, the study drug was administered in the scheduled dose. Sampling was continued at 30-min intervals up to 300 min.
# (§2) Sample collection and analysis of microdialysates and blood samples by capillary electrophoresis were performed according to a validated method with minor modifications ([Mader et al, 1998]). After thawing, 100 μl plasma were centrifuged through Centrisart-C4 filter units with a nominal molecular weight cutoff=10 000 (Sartorius, Germany) for 30 min at 37°C to separate free drug from protein-bound drug. […] Capecitabine, DFCR, DFUR (supplied by Roche, Basel, Switzerland), and FU (Sigma, St Louis, MO, USA) were evaluated in 200 mM tetraborate buffer (pH=9.5) monitoring the absorbance at three different wavelengths (capecitabine: 297 nm, DFCR: 282 nm, DFUR and FU: 268 nm).
# (§3) To obtain absolute interstitial concentrations from dialysate concentrations, microdialysis probes were calibrated for in vivo recovery rates according to the retrodialysis method ([Müller et al, 1995],[1997]). The principle of this method relies on the assumption that the diffusion process is quantitatively equal in both directions across the semipermeable membrane. Therefore, the study drug is added to the perfusate and the disappearance rate through the membrane is taken as the in vivo recovery. The in vivo recovery value is calculated as: […]
# (§4) Absolute interstitial fluid concentrations of free drug were calculated from dialysate concentrations by the following equation: […]
# (§5) The following pharmacokinetic parameters were determined: AUC calculated using the trapezoidal rule, maximum concentration (cmax), time to maximum concentration (tmax), and elimination half-life (t1/2). For statistical calculations, pharmacokinetic parameters derived from different compartments were compared using the paired Wilcoxon test.
# [2] = Microdialysis pharmacokinetics in the interstitium of subcutaneous connective tissue; conditions: human; for AUC(0-t) / Cmax / Tmax / half-life: po, 1250 mg
# Excerpt: as §1, §2, §3, §4, §5
# [3] = design: method as in Mackean et al, 1998; conditions: most slowly eliminating compound; ref Mackean et al, 1998; cited from earlier work
# [4] = Plasma pharmacokinetics of free drug after oral capecitabine in breast cancer patients; assay type: in vivo, human; conditions: for concentration at 1 day / Cmax / half-life / AUC(0-t) / Tmax: human, plasma; for concentration at 1 day: one patient, day 1, slow absorption kinetics, read-out: plasma concentrations; for AUC(0-t): read-out: AUC0−5 h; for plasma concentrations: same patient, end of the first cycle (days 12–14)
# Procedure: In parallel, a plastic cannula was inserted into an antecubital vein to monitor blood concentrations of the study drug at 30-min intervals. A total of 10 capecitabine-naive patients were studied after the first morning dose of day 1. Three of them were monitored once again between days 12 and 14 of cycle 1.
# (§6) After thawing, 100 μl plasma were centrifuged through Centrisart-C4 filter units with a nominal molecular weight cutoff=10 000 (Sartorius, Germany) for 30 min at 37°C to separate free drug from protein-bound drug. […] Capecitabine, DFCR, DFUR (supplied by Roche, Basel, Switzerland), and FU (Sigma, St Louis, MO, USA) were evaluated in 200 mM tetraborate buffer (pH=9.5) monitoring the absorbance at three different wavelengths (capecitabine: 297 nm, DFCR: 282 nm, DFUR and FU: 268 nm). […] The intra-assay coefficient of variation for this method ranged from 3.4 to 6.9% with an interassay coefficient of variation ranging from 6.7 to 10.4%.
# [5] = In vitro plasma protein binding (ultrafiltration); assay type: in vitro ADME
# Procedure: as §6
# The plasma protein binding of DFCR, DFUR, and FU was <4% up to 100 μg substance (ml plasma)^−1. In contrast, the plasma protein binding of capecitabine was determined to be 60% by in vitro binding experiments (data not shown).
# [6] = after capecitabine, cited from earlier work
# [7] = median of single-patient ratios, n=10
# [8] = oral, 1250 mg m^−2, Ratio of AUC0−5 h s.c. Tissue/plasma, median of single-patient ratios, n=10
# [9] = po, free drug, median, n=10, 1250 mg capecitabine m^−2 orally, day 1, read-out: cmax
# [10] = po, median, n=10, 1250 mg capecitabine m^−2 orally
# [11] = po, median, n=10, 1250 mg capecitabine m^−2 orally, read-out: tmax
# [12] = up to 100 μg substance (ml plasma)^−1
# [13] = tissue biopsies, colorectal tumours, ref Schüller et al, 2000
Compound,"Kp ([1]; human, oral, 1250 mg m^−2)","Cmax ([1]; human, po, 1250 mg)","Tmax ([1]; human, po, 1250 mg)","half-life ([1]; human, po, 1250 mg)","Ratio of AUC0−5 h Tumour/s.c. tissue [1, 7]","Kp [2, 8]",AUC(0-t) [2],Cmax [2],Tmax [2],half-life [2],"concentration at 1 day ([4]; oral, 1250 mg m^−2)","Cmax [4, 9]","half-life [4, 10]","AUC(0-t) [4, 10]","Tmax [4, 11]",plasma concentrations [4],"fraction unbound [5, 12]",also measured
"C[C@H]1O[C@@H](n2cc(F)c(N)nc2=O)[C@H](O)[C@@H]1O [DFCR, 5′-deoxy-5-fluorocytidine]",0.67,4220 ng/mL,2.5 h,0.87 h,1.12,0.67,8400 ng·h/mL,4370 ng/mL,2.5 h,0.76 h,≤ 4000 ng/mL,6530 ng/mL,0.86 h,11300 ng·h/mL,1.75 h,about 10 μg ml^−1,> 0.96,plasma half-life [3]: 1.22 h
CCCCCOC(=O)Nc1nc(=O)n([C@@H]2O[C@H](C)[C@@H](O)[C@H]2O)cc1F [Capecitabine],1.76,2660 ng/mL,2.5 h,0.5 h,1.11,1.31,3160 ng·h/mL,2700 ng/mL,2.25 h,0.59 h,–,2340 ng/mL,0.5 h,2360 ng·h/mL,1.75 h,–,–,"Kp ([2]; oral, 1250 mg m^−2, ratio AUCconnective tissue/AUCplasma, subgroup of four patients): > 2; Cmax ([4]; oral, 1250 mg m^−2, capecitabine-naive patients, range between patients, read-out: range of cmax): 640 to 15400 ng/mL; Tmax ([4]; oral, 1250 mg m^−2, capecitabine-naive patients, range between patients, read-out: range of tmax): 1 to 3 h; fraction unbound ([5]; plasma, in vitro binding experiments (data not shown)): 0.4"
"C[C@H]1O[C@@H](n2cc(F)c(=O)[nH]c2=O)[C@H](O)[C@@H]1O [DFUR, 5′-deoxy-5-fluorouridine]",–,–,–,–,–,–,–,–,–,–,≤ 4000 ng/mL,3650 ng/mL,0.8 h,6420 ng·h/mL,2 h,about 10 μg ml^−1,> 0.96,"Kp ([1]; human, in vivo): 0.53; Ratio of AUC0−5 h Tumour/s.c. tissue ([1]; human, in vivo): 1.20; AUC0−5 h ([1]; human, in vivo, po, 1250 mg): 3.35 μg ml^ 1 h; Kp ([2]; in vivo, Ratio of AUC0−5 h s.c. Tissue/plasma): 0.44; AUC(0-t) ([2]; in vivo): 2750 ng·h/mL"
"O=c1[nH]cc(F)c(=O)[nH]1 [FU, 5-fluorouracil, reference compound]",0.66,260 ng/mL,3 h,–,0.66,1.53,360 ng·h/mL,330 ng/mL,2 h,–,–,250 ng/mL,–,290 ng·h/mL,2.5 h,–,> 0.96,"mean tumour/plasma ratio ([6]; patients with colorectal tumours, ref Schüller et al (2000)): 21; median ratio tumour/healthy tissue of FU concentration [6, 13]: 2.9; median tumour/plasma ratio of FU concentration [6, 13]: 16.6; detection in tumour interstitium ([1]; one patient, day 1): not observed; FU levels in plasma ([4]; rarely exceeding, oral capecitabine regimen): ≤ 0.5 µg/mL"
